Results from patent publication US5332818A, “Immunosuppressive agent and process of producing the same” (Toray Industries, Inc., priority 1989, dated 1994).

System: mouse spleen cells
Test: Suppression of mitogen (ConA) reaction
Assay type: cell-based, C57BL/6 mouse
Conditions: 48 hours, 3 cases, read-out: Suppression Rate of Mitogen Reaction; for inhibition at 1 µg/mL: 1 μg/ml; for inhibition at 10 µg/mL: 10 μg/ml; for inhibition at 50 µg/mL: 50 μg/ml
Description: If mouse spleen cells are cultured in vitro in the presence of concanavalin A (hereinafter referred to as "ConA" for short), the cells are divided and proliferated (mitogen reaction). In this system, the immunosuppressive agent of the present invention or cyclosporin A as a comparative example was added to the culture medium and the effects to the mitogen reaction were examined.
More particularly, C57BL/6 mouse was sacrificed and the spleen was removed. The spleen cells were suspended in RPMI 1640 culture medium containing 10% fetal calf serum (hereinafter referred to as "RPMI 1640" for short) so as to prepare a spleen cell suspension (5×10^6 cells/ml). In the wells of a flat-bottomed 96-well microplate, 100 μl of the suspension was placed and then 50 μl of RPMI 1640 containing ConA (4 μg/ml) as well as 50 μl of RPMI 1640 containing the test compound in the concentration shown in Table 2 were added. The cells were cultured for 48 hours (37° C. 5%CO2) As a control, 50 μl of RPMI 1640 was added. Eight hours before the termination of the culture, 2 μ Ci of [^3 H] thymidine was […], added. After termination of the culture, the cells were collected on a filter paper by using a cell harvester. After drying the filter paper, the filter paper was placed in a vial containing toluene-based scintillator and the radioactivity was measured by a liquid scintillation counter.
The suppression rate of mitogen reaction was calculated according to the following equation: [formula]

Row | Compound | inhibition at 1 µg/mL | inhibition at 10 µg/mL | inhibition at 50 µg/mL
1 | Oc1ccc2c3c1O[C@H]1c4[nH]c5ccc(Br)cc5c4C[C@@]4(O)[C@@H](C2)N(CC2CC2)CC[C@]314 [cyclopropylmethyl OH H NH 5'-Br H] | 7% | 40% | 100%
2 | C=CCN1CC[C@]23c4c5ccc(O)c4O[C@H]2c2[nH]c4ccc(C)cc4c2C[C@@]3(O)[C@H]1C5 [allyl OH H NH 5'-Me H, 5'-methylnaloxindole] | 22% | 45% | 100%
3 | C=CCN1CC[C@]23c4c5ccc(OC)c4O[C@H]2c2[nH]c4ccccc4c2C[C@@]3(O)[C@H]1C5 [allyl OH Me NH H H] | 17% | 32% | 100%
4 | CC(=O)O[C@@]12Cc3c([nH]c4ccccc34)[C@@H]3Oc4c(O)ccc5c4[C@@]31CCN(CC1CC1)[C@@H]2C5 [cyclopropylmethyl OAc H NH H H] | 2% | 70% | 100%
5 | C=CCN1CC[C@]23c4c5ccc(O)c4O[C@H]2c2[nH]c4c(Cl)cccc4c2C[C@@]3(O)[C@H]1C5 [allyl OH H NH 7'-Cl H] | 17% | 50% | 100%
6 | COc1ccc2c3c1O[C@H]1c4[nH]c5ccccc5c4C[C@@]4(O)[C@@H](C2)N(CC2CC2)CC[C@]314 [cyclopropylmethyl OH Me NH H H] | 9% | 65% | 100%
7 | Oc1ccc2c3c1O[C@H]1c4[nH]c5ccc6ccccc6c5c4C[C@@]4(O)[C@@H](C2)N(CC2CC2)CC[C@]314 [cyclopropylmethyl OH H NH 4',5'-benzo] | 2% | 30% | 88%
8 | O=[N+]([O-])c1cccc2c3c([nH]c12)[C@@H]1Oc2c(O)ccc4c2[C@@]12CCN(CC1CC1)[C@H](C4)[C@]2(O)C3 [cyclopropylmethyl OH H NH 7'-NO2 H] | 5% | 55% | 100%
9 | Cc1ccc2[nH]c3c(c2c1)C[C@@]1(O)[C@H]2Cc4ccc(O)c5c4[C@@]1(CCN2CC1CC1)[C@H]3O5 [cyclopropylmethyl OH H NH 5'-Me H] | 8% | 34% | 100%
10 | Oc1ccc2c3c1O[C@H]1c4[nH]c5c(F)cccc5c4C[C@@]4(O)[C@@H](C2)N(CC2CC2)CC[C@]314 [cyclopropylmethyl OH H NH 7'-F H] | 15% | 61% | 100%
11 | C=CCN1CC[C@]23c4c5ccc(O)c4O[C@H]2c2oc4ccccc4c2C[C@@]3(O)[C@H]1C5 [allyl OH H O H H] | 6% | 45% | 100%
12 | Cc1ccc2c3c([nH]c2c1)[C@@H]1Oc2c(O)ccc4c2[C@@]12CCN(CC1CC1)[C@H](C4)[C@]2(O)C3 [cyclopropylmethyl OH H NH 6'-Me H] | 0% | 28% | 100%
13 | CN1CC[C@]23c4c5ccc(O)c4O[C@H]2c2[nH]c4ccccc4c2C[C@H]3[C@H]1C5 [Me H H NH H H] | 0% | 12% | 52%
14 | Oc1ccc2c3c1O[C@H]1c4[nH]c5c(Cl)cccc5c4C[C@@]4(O)[C@@H](C2)N(CC2CC2)CC[C@]314 [cyclopropylmethyl OH H NH 7'-Cl H] | 15% | 75% | 100%
15 | Oc1ccc2c3c1O[C@H]1c4nc5ccccc5nc4C[C@@]4(O)[C@@H](C2)N(CC2CC2)CC[C@]314 [cyclopropylmethyl OH H N H H] | 10% | 34% | 55%
16 | Oc1ccc2c3c1O[C@H]1c4nc5ccccc5cc4C[C@@]4(O)[C@@H](C2)N(CC2CC2)CC[C@]314 [cyclopropylmethyl OH H CH H H] | 15% | 43% | 75%
17 | CC(=O)Oc1ccc2c3c1O[C@H]1c4[nH]c5ccccc5c4C[C@@]4(OC(C)=O)[C@@H](C2)N(CC2CC2)CC[C@]314 [cyclopropylmethyl OAc Ac NH H H] | 4% | 55% | 100%
18 | C=CCN1CC[C@]23c4c5ccc(O)c4O[C@H]2c2c(c4ccccc4n2C)C[C@@]3(O)[C@H]1C5 [allyl OH H NMe H H] | 13% | 50% | 100%
19 | Oc1ccc2c3c1O[C@H]1c4[nH]c5ccc(Cl)cc5c4C[C@@]4(O)[C@@H](C2)N(CC2CC2)CC[C@]314 [cyclopropylmethyl OH H NH 5'-Cl H] | 12% | 37% | 100%
20 | Cn1c2c(c3ccccc31)C[C@@]1(O)[C@H]3Cc4ccc(O)c5c4[C@@]1(CCN3CC1CC1)[C@H]2O5 [cyclopropylmethyl OH H NMe H H] | 15% | 69% | 100%
21 | C=CCN1CC[C@]23c4c5ccc(OC(C)=O)c4O[C@H]2c2[nH]c4ccccc4c2C[C@@]3(OC(C)=O)[C@H]1C5 [allyl OAc Ac NH H H] | 2% | 40% | 100%
